The % Inhibition is the relative decrease from the control value, in per cent. As a reminder, the inhibition is the drop in the measured response relative to a control, in per cent.

The first test concerns Trachea and lungs (ovalbumin-sensitized guinea pig tissue, antigen challenge). The test is described as follows: modified Shultz-Dale procedure: inhibition of antigen-induced contraction of isolated trachea and lung from ovalbumin-immunized guinea pigs. In kind it is cell-based. As to conditions: 3 × 10^-5 M; isolated guinea pig tissue (trachea/lung not distinguished), antigen challenge 10 min after drug. The method, then: The compounds of the invention display antiallergic properties when tested by the following procedure [modification of Shultz-Dale procedure, Agents and Actions, 8, 171 (1978)]: Guinea pigs, after one week environmental stabilization, are immunized IP with 1 mg crude ovalbumin (OA) in 1 ml saline with 50% complete Freund's Adjuvant (CFA). Twenty-one days later animals are killed by a blow to the head. Trachea and lungs are removed and placed in Tyrode's solution, pH 7.4, aerated with 5% CO2 in O2.
Trachea: Connective and vascular tissue are removed and a wooden stick is inserted in the lumen. One end of the trachea is fixed with a pin. The stick is held against a surgical blade and rotated in a helical manner. Spirals formed are cut into two lengths, each containing two or more bands of transverse strips of tracheal muscle. The tissue is attached to transducers and maintained at 5 g tension. Sensitivity of the preamplifier is 2.0 mv/cm and of the amplifier, 0.02 mv/cm, with calibration of 20 mg force displacement per mm. After 45 minutes equilibration, the tissue is challenged with antigen.
Lung: The heart and lung are removed as a unit and the lung is perfused with buffer by the spontaneously beating heart for several minutes. Distal strips of lung from the diaphragmatic lobe approximately 0.3 cm wide and 3 cm long are removed and attached to transducers. Preload is 0.3 g of tension with sensitivity at 0.02 mv/cm on the amplifier and 0.5 mv/cm on the preamp and calibration of 1 mm=5 mg force displacement.
Test Design for Evaluation of Drugs: All tissues are challenged repetitively with the same concentration of antigen. After each concentration, the tissue is washed and allowed to stabilize. The original baseline tension is reestablished before the next challenge. Control contractions in lung must develop a minimum of 10 mg and in trachea, a minimum of 40 mg tension above baseline. When the contractions are reproducible, drug is introduced. Drug effects of baseline are monitored. Ten minutes later, after readjustment to baseline tension as indicated by consecutive reading one minute apart, tissue is again challenged with antigen. The concentration is monitored for at least 15 minutes and the tissue is washed free of antigen and drug. […] Tissues are not used again. If inhibition takes place, a final antigen challenge is repeated to establish that the tissue is reactive to antigen.
Take `CCOc1c(C(=O)Nc2nnn[nH]2)oc2c3ccccc3n(-c3ccccc3)c12` [H, C6 H5, C2 H5,, 3-Ethoxy-4-phenyl-N(1H-tetrazol-5-yl)-4H-furo[3,2-b]-indole-2-carboxamide]: the “% Inhibition” value was found to be 100%.

The same test, now with this note: Cavia porcellus, 10 min; 3 × 10^-5 M; isolated guinea pig tissue (trachea/lung not distinguished), antigen challenge 10 min after drug.
Take `CCOc1c(C(=O)O)oc2c3cc(OC)ccc3n(-c3ccccc3)c12` [CH3 O, C6 H5, C2 H5, COOH, 3-Ethoxy-7-methoxy-4-phenyl-4H-furo[3,2-b]indole-2-carboxylic acid]: the inhibition at 30 µM was determined as 100%.
Regarding `CCOc1c(C(=O)Nc2nnn[nH]2)oc2c3cc(OC)ccc3n(-c3ccccc3)c12` [CH3 O, C6 H5, C2 H5,, 3-Ethoxy-7-methoxy-4-phenyl-N-(1H-tetrazol-5-yl)-4H-furo[3,2-b]indole-2-carboxamide], the inhibition at 30 µM amounted to 100%.
`COc1ccc2c(c1)c1oc(C(=O)O)c(OC)c1n2-c1ccccc1` [CH3 O, C6 H5, CH3, COOH, 3,7-Dimethoxy-4-phenyl-4H-furo[3,2-b]indole-2-carboxylic acid]: the inhibition at 30 µM stood at 100%.
For `COc1ccc2c(c1)c1oc(-c3nnn[nH]3)c(OC)c1n2-c1ccccc1` [CH3 O, C6 H5, CH3,, 3,7-Dimethoxy-4-phenyl-2-(1H-tetrazol-5-yl)-4H-furo[3,2-b]indole], the inhibition at 30 µM turned out to be 100%.
As for `COc1ccc2c(c1)c1oc(C(=O)Nc3nnn[nH]3)c(OC)c1n2-c1ccccc1` [CH3 O, C6 H5, CH3,, 3,7-Dimethoxy-4-phenyl-N-(1H-tetrazol-5-yl)-4H-furo[3,2-b]indole-2-carboxamide], the inhibition at 30 µM was determined as 100%.
For `CCOc1c(C(=O)O)oc2c3ccccc3n(-c3ccccc3)c12` [H, C6 H5, C2 H5, COOH, 3-Ethoxy-4-phenyl-4H-furo[3,2-b]indole-2-carboxylic acid], the inhibition at 30 µM came to 100%.
Turning to `CCOc1c(-c2nnn[nH]2)oc2c3ccccc3n(-c3ccccc3)c12` [H, C6 H5, C2 H5,, 3-Ethoxy-4-phenyl-2(1H-tetrazol-5-yl)-4H-furo[3,2-b]indole], the inhibition at 30 µM worked out at 100%.
As to `COc1c(C(=O)O)oc2c3ccccc3n(-c3ccccc3)c12` [H, C6 H5, CH3, COOH, 3-Methoxy-4-phenyl-4H-furo[3,2-b]indole-2-carboxylic acid], the inhibition at 30 µM was determined as 100%.
Consider `COc1c(C(=O)Nc2nnn[nH]2)oc2c3ccccc3n(-c3ccccc3)c12` [H, C6 H5, CH3,, 3-Methoxy-4-phenyl-N-(1H-tetrazol-5-yl)-4H-furo[3,2-b]indole-2-carboxamide], for which the inhibition at 30 µM was 100%.
Same read-out and setting: for `COc1c(-c2nnn[nH]2)oc2c3ccccc3n(C)c12` [H, CH3, CH3,, 3-Methoxy-4-methyl-2-(1H-tetrazol-5-yl)-4H-furo[3,2-b]indole] the value was 26%; for `COc1c(C(=O)Nc2nnn[nH]2)oc2c3ccccc3n(C)c12` [H, CH3, CH3,, 3-Methoxy-4-methyl-N-(1H-tetrazol-5-yl)-4H-furo[3,2-b]indole-2-carboxamide], 38%.

These data come from US4503236A, “Antiallergic 4Hfuro[3,2-b]indoles” (Warner-Lambert Company, priority 1983, dated 1985).
